Assay results as given in the NIST ThermoML archive (doi:10.1016/j.tca.2012.09.040).
Numbers after ± are expanded uncertainties.

Assay: of the first substance listed, at infinite dilution; xn = mol fraction of the nth substance listed
Details: 100 kPa, Liquid, isoperibol

Structure (SMILES) | partial molar enthalpy (298.15 K, x1 = 0) [kJ/mol] | partial molar enthalpy (318.15 K, x1 = 0) [kJ/mol] | partial molar enthalpy (298.15 K, x2 = 1) [kJ/mol] | partial molar enthalpy (318.15 K, x2 = 1) [kJ/mol]
CN(C)C=O [dimethylformamide] + CCCCCCCCO | 5.63 ± 0.11 | 5.1 ± 0.1 |  | 
CCCCCCCCO [octan-1-ol] + CN(C)C=O |  |  | 6.5 ± 0.13 | 6.38 ± 0.13
